{
  "source": "paper PMC10547880",
  "about": "“Synthesis and biological evaluation of novel 1,2,3-triazole hybrids of cabotegravir: identification of potent antitumor activity against lung cancer” (Frontiers in Pharmacology, 2023)",
  "format_in_all_cases": "cell-based, Human",
  "key": {"[1]": {"tested_on": "H1299 cells", "assay": "Apoptosis assay, Annexin V-FITC/PI flow cytometry, H1299", "conditions": "H1299, 72 h", "experimental": "Cells with a density of 3 × 10^5 cells per well were seeded in 6-well plates. After overnight adhesion, cells were treated with different concentrations of compounds for 72 h. Cells were harvested and stained with Annexin V-FITC and propidium iodide. Apoptotic ratio was quantified using the flow cytometry (BD Biosciences) and analyzed using the FlowJo software v10. Values were expressed as Mean ± SD, p < 0.05 was considered statistically significant. Data were performed using Graph Prim 7.0.\nApoptosis is a programmed-controlled process of cell self-destruction, and increased cell apoptosis can lead to cell death ([Wang et al., 2023]). To explore the preliminary molecular mechanisms of the synthesized compounds action, the apoptotic activity of compound 5i was evaluated by comparing the percentage of apoptotic cells with untreated cells using flow cytometry after staining with Annexin V-FITC and PI ([Chen et al., 2022a]). This assay facilitates the detection of necrotic cells (Q1, AV-/PI+), late apoptotic cells (Q2, AV+/PI+), early apoptotic cells (Q3, AV+/PI-), and live cells (Q4, AV-/PI-). H460 and H1299 cells were treated with different doses of compound 5i for 72h, and cells were collected, stained, and analyzed. The proportion of early and late apoptotic cells was added and their ratio relative to the total cells was calculated."}, "[2]": {"tested_on": "LO2 cells", "assay": "CCK8 cell viability, normal cell line LO2", "conditions": "LO2 normal liver cells, 25 μM, 72 h", "experimental": "(§1) Human lung cancer cell line H460 and H1299, human liver normal cell line LO2 were bought from ATCC. DMEM or RPMI 1640 was used as the cell culture medium with 10% FBS and 1% penicillin/streptomycin. Cells were maintained in an incubator with 37°C humidified atmosphere and 5% CO2.\n(§2) Cell viability and IC50 values were determined using the CCK8 assay kit. Cells were seeded at a density of 5 × 10^3 cells per well in a 96-well plate. After overnight adhesion, 25 μM of compounds or vehicle control DMSO which all dissolved in the culture medium were added to cells and cultured for 48 h or 72 h. CCK8 reagent, dissolved in the medium, was then added to cells and incubated for 1 h. The absorbance at 450 nm was measured using a microplate spectrophotometer (Thermo). Cell viability was calculated, with the untreated group taken as 100%. For IC50 values determination, different concentrations (0, 0.4 μM, 2 μM, 10 μM, 20 μM, 50 μM) of compounds were added to cells for 72 h. Subsequent CCK8 measurement allowed the calculation of inhibition percentage based on cell viability. The IC50 values were computed by the prism statistical software. The CCK-8 assay was conducted three times and the repetitions in each time were at least three. All the values were expressed as Mean ± SD, p < 0.05 was considered statistically significant.\n(§3) In order to assess the potential cytotoxicity of the synthesized compounds, we selected two types of human non-small-cell lung cancer cell line, H460 and H1299. Cell viability and cytotoxicity were evaluated using the CCK8 assay ([Xu et al., 2018]). The cells were treated with 25 μM of compounds 5a-5s and 6a-6i for 48h and 72 h. […] In contrast, no compounds managed to reduce H1299 cell viability to less than 50%, yet compounds 5i, 5m, 6h and 6i achieved cell viability rates below 70%. […] It is worth noting that minimal effects on the cell viability of the normal cell line LO2 were observed when exposed to these compounds. Further, we determined the half-maximal inhibitory concentration (IC50) of selected compounds against H460 cells, the results of which were summarized in Table 3."}, "[3]": {"tested_on": "H1299 cells", "assay": "Live/dead cell staining (Calcein-AM/PI), H1299", "conditions": "H1299, 5, 10, 20 μM, 24 h", "experimental": "Cells with a density of 5 × 10^3 cells per well were seeded in a 96-well plate. After overnight incubation, cells were treated with different concentrations (0, 5 μM, 10 μM, 20 μM) of compounds for 24 h. The LIVE/DEAD Assay Kit was used to dye cells, and cells were observed and photographed under a fluorescent microscope. Live and Dead cell numbers were counted and the ratio of dead to living cells were calculated. Values were expressed as Mean ± SEM, p < 0.05 was considered statistically significant. Data were performed using Graph Prim 7.0.\nTo assess the anti-proliferative effects of compound 5i, live/dead cell staining was performed using Calcein Acetoxymethyl Ester (Calcein-AM) and Propidium Iodide (PI) dyes ([Xie et al., 2023]). Calcein-AM highlights live cells through green fluorescence emission, while PI identifies dead cells with damaged membrane integrity, producing red fluorescence. H460 and H1299 cells were treated with different concentrations (0, 5, 10 and 20 μM) of compound 5i for 24 h. After 24 h treatment, cells were stained with Calcein-AM and PI, diluted in cultured medium, and incubated for an hour in dark. Then the fluorescence was detected and photographed using a fluorescent microscope. […] In addition, we also performed plate clone formation assay ([Xu et al., 2018]) to further investigate the anti-proliferation ability of compound 5i. […]"}, "[4]": {"tested_on": "H460 cells", "assay": "CCK8 cell viability and IC50 measurement, H460", "experimental": "as §1, §2, §3"}},
  "data": [
    {"smiles": "COc1c2n(cc(C(=O)Nc3cccc(-c4cn(-c5ccccc5OC(F)(F)F)nn4)c3)c1=O)CC1OCC(C)N1C2=O", "note": "(centres unmarked) [Compound 5i]", "values": [
      {"measurement": "apoptotic cells (early + late)", "setting": "[1]", "value": "no significant change or even a decrease"},
      {"measurement": "Cell viability", "setting": "[2]", "value": 99.80, "unit": "%"},
      {"measurement": "live and dead cell numbers", "setting": "[3]", "value": "decrease in live cell numbers alongside a substantial rise in dead cells"},
      {"measurement": "cell proliferation inhibition rate", "setting": "[4]; H460, 72-h treatment", "value": "exceed 50%"},
      {"measurement": "IC50", "setting": "[4]; H460, 72 h, CCK8", "value": "6.06 ± 1.8", "unit": "µM"}
    ]}
  ]
}
